What follows are molecules tested on NCI-H295R (assay: IC50 (antiproliferative, ATP content)). Details: 48 h.
In short: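 Adrenocortical carcinoma cells were plated at 1500 per well in 1536-well plates in serum-free DMEM with ITS supplement, left overnight, then given library compounds by pin transfer at 8 final concentrations spanning 0.6 nM to 46 µM and held 48 h at 37 °C, 5% CO2. ATP was measured as CellTiter-Glo luminescence after 20 min at room temperature and scaled between vehicle and positive-control wells. A four-parameter logistic model was fitted to each series. The IC50 was taken from these fits, and compounds without a concentration response were recorded as above the top dose.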

SMILES	IC50
NCC[C@H](O)C(=O)N[C@@H]1C[C@H](N)[C@@H](O[C@H]2O[C@H](CN)CC[C@H]2N)[C@H](O)[C@H]1O[C@H]1O[C@H](CO)[C@@H](O)[C@H](N)[C@H]1O.O=S(=O)(O)O	> 46 µM
Cc1ccc(O)c([C@H](CCN(C(C)C)C(C)C)c2ccccc2)c1	> 46 µM
Oc1ccc2[nH]cc(CCCCN3CC=C(c4ccccc4)CC3)c2c1	> 46 µM
CC12CCC(C1)C(C)(C)C2=O (centres undefined)	> 46 µM
O=C3N1/C(=C(\CS[C@@H]1[C@@H]3NC(=O)Cc2ccccc2CN)CSc4nnnn4CC(O)=O)C(O)=O	> 46 µM
CN(C)CCc1c[nH]c2ccc(CS(=O)(=O)N3CCCC3)cc12	> 46 µM
CC(C)(C)NCC(O)c1ccc(O)c(CO)c1 (centres undefined)	> 46 µM
CC(C)(C#N)c1cc(Cn2cncn2)cc(C(C)(C)C#N)c1	> 46 µM
Cc1ccc(S(=O)(=O)O)cc1.c1cc2c(c(NC3=NCCN3)c1)CCCC2	> 46 µM
CC(C)(C)NCC(O)c1cc(O)cc(O)c1.CC(C)(C)NCC(O)c1cc(O)cc(O)c1.O=S(=O)(O)O (centres undefined)	> 46 µM
CC(O)C(=O)O.CCCCCCCCCCCCCCNCCO	> 46 µM
CCNc1nc(Cl)nc(NCC)n1	> 46 µM
CCOC(CN1CCN(CC(C)C(=O)c2ccccc2)CC1)c1ccccc1.Cl.Cl (centres undefined)	> 46 µM
CN[C@@H]1[C@H](O)[C@H](NC)[C@H]2O[C@@]3(O)C(=O)C[C@@H](C)O[C@H]3O[C@@H]2[C@H]1O.Cl.Cl	> 46 µM
Cl.O=S(=O)(c1cccc2cnccc12)N1CCCNCC1	> 46 µM
C[C@H](CCCC(C)(C)O)[C@H]1CC[C@H]2[C@@H]3CC=C4C[C@@H](O)CC[C@]4(C)[C@H]3CC[C@]12C	> 46 µM
O=c1[nH]c2cc(C(F)(F)F)c(N3CCOCC3)cc2n(CP(=O)(O)O)c1=O	> 46 µM
CCCc1cc(=O)[nH]c(=S)[nH]1	> 46 µM
O[C@@H]3C\C4=C\C[C@@H]1[C@H](CC[C@]2(C)[C@@H](O)CC[C@@H]12)[C@@]4(C)CC3	> 46 µM
CCC(C)(CN(C)C)OC(=O)c1ccccc1.Cl (centres undefined)	> 46 µM
CCN1CC(CCN2CCOCC2)C(c2ccccc2)(c2ccccc2)C1=O.Cl (centres undefined)	> 46 µM
O=C1[C@H](CC[C@@H](C4=CC=C(F)C=C4)O)[C@@H]([C@]3=CC=C(O)C=C3)N1C2=CC=C(F)C=C2	> 46 µM
O=[C@@](N\C(C([O-])=O)=C/CCCCSC[C@H](N)C(O)=O)[C@@H](C1)C1(C)C.[Na+]	> 46 µM
CC(C)NCC(O)c1ccc(NS(C)(=O)=O)cc1 (centres undefined)	> 46 µM
O=C(O)Cc1nn(Cc2ccc(Br)cc2F)c(=O)c2ccccc12	> 46 µM

SMILES	IC50
COc1cc(N)c(Cl)cc1C(=O)NC1CCN(CCCOc2ccc(F)cc2)CC1OC (centres undefined)	> 46 µM
CC1(C)S[C@@H]2[C@H](NC(=O)C(C(=O)[O-])c3ccsc3)C(=O)N2[C@H]1C(=O)[O-].[Na+].[Na+] (some centres undefined)	> 46 µM
CC(C)CCC[C@@H](C)[C@H]1CC[C@H]2[C@@H]3CC=C4C[C@@H](O)CC[C@]4(C)[C@H]3CC[C@]12C	> 46 µM
CCOC(=O)c1c(C)n(C)c2ccc(O)cc12	> 46 µM
O=C(Oc1ccccc1C(=O)O)c1ccccc1O	> 46 µM
CCCC(C)C1(CC)C(=O)N=C(O)NC1=O (centres undefined)	> 46 µM
CN1CCc2c(c3ccccc3n2Cc2ccccc2)C1.CN1CCc2c(c3ccccc3n2Cc2ccccc2)C1.O=S(=O)(O)c1cccc2c(S(=O)(=O)O)cccc12	> 46 µM
CO/N=C1\CN(c2nc3c(cc2F)c(=O)c(C(=O)O)cn3C2CC2)CC1CN.CS(=O)(=O)O (centres undefined)	> 46 µM
Cc1ccc2c(c1)C1CN(C)CCC1N2 (centres undefined)	> 46 µM
O=C(COc1ccc(Cl)cc1)OCCNC12CC3CC(CC(C3)C1)C2	> 46 µM
Cl.O=C(O)/C=C/c1ccc(Cn2ccnc2)cc1	> 46 µM
O=C1C(O)=C(O)C(=O)C(O)=C1O	> 46 µM
C#Cc1cccc(Nc2ncnc3cc(OCCOC)c(OCCOC)cc23)c1	> 46 µM
CCC1(CC)C(=O)NC(=O)N(C)C1=O	> 46 µM
O=C2N1[C@]([C@@]([H])2NC(C3=C(C)ON=C3C(C(Cl)=CC=C4)=C4F)=O)([H])SC(C)(C)[C@@H]1[C@@]([O-])=O.[Na+]	> 46 µM
FC(F)(F)C(Cl)Br (centres undefined)	> 46 µM
O.O.O.O.[Na+].[O-]c1ccccc1-c1ccccc1	> 46 µM
COc1cc(C(=O)N2CCOCC2)cc(OC)c1OC	> 46 µM
O=S(=O)(O)c1ccc(O)cc1	> 46 µM
CCCCOC(=O)c1ccc(N)cc1	> 46 µM
CN1C(=O)[C@@H](NC(=O)c2cc3ccccc3[nH]2)N=C(c2ccccc2)c2ccccc21	> 46 µM
CCCCCCC(=O)CCCCCC/C=C/C[C@@H](O)[C@H](O)[C@@](N)(CO)C(=O)O	> 46 µM
O=C(O)CN(CC(=O)O)Cc1cc2c(cc1O)Oc1ccc(CN(CC(=O)O)CC(=O)O)c(O)c1C21OC(=O)c2ccccc21 (centres undefined)	> 46 µM
COc1cc2ncnc(Nc3ccc(F)c(Cl)c3)c2cc1OCCCN1CCOCC1	> 46 µM
O=C(O)c1ccccc1Nc1cccc(C(F)(F)F)c1	> 46 µM

SMILES	IC50
CCCCc1ncc(/C=C(\Cc2cccs2)C(=O)O)n1Cc1ccc(C(=O)O)cc1.CS(=O)(=O)O	> 46 µM
COC(=O)c1ccccc1O	> 46 µM
Cn1c(=O)c2c(ncn2CCO)n(C)c1=O	> 46 µM
CC=CC1=C(C(=O)O)N2C(=O)[C@@H](NC(=O)[C@H](N)c3ccc(O)cc3)[C@H]2SC1.O	> 46 µM
CN(C)CC/C=C1/c2ccccc2COc2ccc(CC(=O)O)cc21.Cl	> 46 µM
OC(C)=O.NC(CNC([C@H](CCCNC(N)=N)N[C@]([C@@H]1CCCN1[C@]([C@H](CSSCCC(N[C@@H](CC4=CC=C(O)C=C4)C3=O)=O)NC([C@H](CC(N)=O)NC([C@@H](NC([C@@H](N3)CC2=CC=CC=C2)=O)CCC(N)=O)=O)=O)=O)=O)=O)=O	> 46 µM
CCC(=O)O[C@]1(C(=O)SCF)[C@H](C)C[C@H]2C3C[C@H](F)C4=CC(=O)C=C[C@]4(C)[C@@]3(F)[C@@H](O)C[C@@]21C (some centres undefined)	> 46 µM
CCC(=O)O[C@@H]1CC(=O)O[C@H](C)CC=CC=C[C@H](O)[C@H](C)C[C@H](CC=O)[C@H](O[C@@H]2O[C@H](C)[C@@H](O[C@H]3C[C@@](C)(O)[C@@H](OC(=O)CC)[C@H](C)O3)[C@H](N(C)C)[C@H]2O)[C@H]1OC	> 46 µM
CCN(CC)CCSC(=O)C(c1ccccc1)c1ccccc1	> 46 µM
Cl.c1ccc(CN(CC2=NCCN2)c2ccccc2)cc1	> 46 µM
CC(O)(P(=O)([O-])O)P(=O)([O-])O.[Na+].[Na+]	> 46 µM
CNCCCC12CCC(c3ccccc31)c1ccccc12	> 46 µM
COC(=O)CCC(=O)CN.Cl	> 46 µM
O=C(NCCNCC(O)COc1ccc(O)cc1)N1CCOCC1 (centres undefined)	> 46 µM
CN1C(=O)CC[C@H]1c1cccnc1	> 46 µM
O=C1NCN(c2ccccc2)C12CCN(CC1COc3ccccc3O1)CC2 (centres undefined)	> 46 µM
Cc1cccc(C)c1Nc1ncccc1C(=O)O	> 46 µM
Nc1ccc(S(=O)(=O)Nc2ncccn2)cc1	> 46 µM
C[C@@H](Cc1ccccc1)N(C)C	> 46 µM
CCCCCCC[N+](CC)(CC)CCCCc1ccc(Cl)cc1.Cc1ccc(S(=O)(=O)[O-])cc1	> 46 µM
CCCCCCCCCCCCCCCC(=O)OC[C@@H](O)[C@H]1OC[C@H](O)[C@H]1O	> 46 µM
Cn1c([N+](=O)[O-])cnc1COC(N)=O	> 46 µM
CCCCC/C=C\C/C=C\C/C=C\C/C=C\CCCC(=O)NCC(=O)O	> 46 µM
CC(C)Cn1cnc2c1c(=O)n(C)c(=O)n2C	> 46 µM
CC1=C[C@H](O)CC(C)(C)[C@H]1/C=C/C(C)=C/C=C/C(C)=C/C=C/C=C(C)/C=C/C=C(C)/C=C/C1=C(C)C[C@@H](O)CC1(C)C	> 46 µM

SMILES	IC50
C=C[C@H]1CN2CC[C@H]1C[C@@H]2[C@@H](O)c1ccnc2ccc(OC)cc12	> 46 µM
O=C(O)C(=O)O.c1ccc2cc(C3=NCCN3)ccc2c1	> 46 µM
O=C(O)C=CC(=O)Nc1ccc(S(=O)(=O)Nc2nccs2)cc1	> 46 µM
O=C1c2ccccc2S(=O)(=O)N1CCCCN1CCN(c2ncccn2)CC1	> 46 µM
Cc1ccccc1	> 46 µM
CC(C)NC(=N)NC(=N)Nc1ccc(Cl)cc1.Cl	> 46 µM
Cc1onc(-c2ccccc2)c1-c1ccc(S(N)(=O)=O)cc1	> 46 µM
CCC(COC(=O)c1cc(OC)c(OC)c(OC)c1)(c1ccccc1)N(C)C.O=C(O)/C=C\C(=O)O (centres undefined)	> 46 µM
CCC1(C)CC(=O)NC1=O (centres undefined)	> 46 µM
CN1C(CCl)Nc2cc(Cl)c(S(N)(=O)=O)cc2S1(=O)=O (centres undefined)	> 46 µM
CCOC(=O)c1ccc(O)cc1	> 46 µM
c1ccc2ccccc2c1	> 46 µM
CC(=O)Oc1c(C)cc(OCC(O)CNC(C)C)c(C)c1C (centres undefined)	> 46 µM
CN1c2ccccc2C(NCCCCCCC(=O)[O-])c2ccc(Cl)cc2S1(=O)=O.[Na+] (centres undefined)	> 46 µM
Cl.Cl.NCCNc1cccc2ccccc12	> 46 µM
NCCS(=O)(=O)O	> 46 µM
O=C2C=1/N=C\NC=1N(C)C(=O)N2C	> 46 µM
Cc1ncc(CO)c(C=O)c1O	> 46 µM
O=C1C(C(O)=CC(O)=C2)=C2O[C@H]([C@](C=C5)=CC3=C5O[C@H](CO)[C@@H]([C@]4=CC(OC)=C(O)C=C4)O3)[C@H]1O	> 46 µM
CN(C)CCC(O)(c1ccccc1)c1ccccc1Cl (centres undefined)	> 46 µM
O=C1CN=C(c2ccccc2)c2cc([N+](=O)[O-])ccc2N1	> 46 µM
O=C(O)c1ccc[n+]([O-])c1	> 46 µM
CC1CCC(C(C)C)C(OC(=O)c2ccccc2O)C1 (centres undefined)	> 46 µM
O=C1c2ccccc2CN2C(=O)c3ccccc3CN12	> 46 µM

From the supplement of paper PMC3493320
